Here are results for 4 compounds from US6150359A, “Naphthyridinones for inhibiting protein tyrosine kinase and cell cycle kinase mediated cellular proliferation” (Warner-Lambert Company, priority 2000, dated 2000).

A value given as a limit tells only on which side of the number the result lay.

Test [1] concerns HT-29 cells. In words: Human Colon Carcinoma Growth Delay Assay, HT-29. The note with it: 72 h, HT-29, 3 days. The class given is cell-based. The protocol:
(§1) Human Colon Carcinoma Growth Delay Assay. Human colon carcinoma cells are seeded into 96-well tissue culture plates in a final volume of 180 μL of 10% fetal bovine serum containing growth media and allowed to incubate overnight (37° C., 5% CO2, 95% air). Cells of the SW-620 cell line are seeded at 1.0-1.5×10^4 cells per well. Cells of the HCT-8 and HT-29 cell lines are seeded at 2-4×10^3 cells per well. Serially diluted drug solutions are prepared in growth medium at 10 times concentration; 20 μL of these solutions are added to duplicate wells and incubated with the cells for 3 days in a cell culture incubator. At the end of the incubation period, cells are fixed with 100 μL per well of 10% trichloroacetic acid after removing the drug/culture medium. The plates are washed five times with tap water and stained with 100 μL per well of 0.075% sulfrhodamine B in 1% acetic acid for 10 minutes. The plates are rinsed four times and allowed to air dry. The stain in the wells are solubilized by the addition of 10 mM unbuffered Tris base and the absorbance read using a microtiter plate optical reader. Inhibition of cell growth is calculated from absorbance data of the treated cells compared to untreated control cells.

The target in a further test is T1, insulin receptor (INSr) (Homo sapiens, UniProt P06213).
T1 construct: An assay using the intracellular kinase domains of insulin receptor (INSr)
Description: Insulin receptor (INSr) kinase assay. The following applies: 10 mM manganese chloride. It is filed as biochemical. Here is the method: (§2) EGFr. Enzyme assays for IC50 determinations are performed in 96-well filter plates (Millipore MADVN6550). The total volume is 0.1 mL containing 20 mM Hepes, pH 7.4, 50 μM sodium vanadate, 40 mM magnesium chloride, 10 μM ATP containing 0.5 μCi of [^32 P]ATP, 20 μg of polyglutamic acid/tyrosine (Sigma Chemical Co., St. Louis, Mo.), 10 ng of EGF receptor tyrosine kinase and appropriate dilutions of inhibitor. All components except the ATP are added to the well, and the plate is incubated with shaking for 10 minutes at 25° C. The reaction is started by adding [^32 P]ATP, and the plate is incubated at 25° C. for 10 minutes. The reaction is terminated by addition of 0.1 mL of 20% trichloroacetic acid (TCA). The plate is kept at 4° C. for at least 15 minutes to allow the substrate to precipitate. The wells are then washed five times with 0.2 mL of 10% TCA, and ^32 P incorporation is determined with a Wallac beta plate counter.
Other Kinases. An assay using the intracellular kinase domains of insulin receptor (INSr) is performed as described for the EGF receptor except that 10 mM manganese chloride is included in the reaction. The PKC assay is performed as previously described by Martiny-Baron, et al., J. Biol. Chem., 1993;268:9194-9197.

Test [2] deals with HT-29 cells. In words: Human Colon Carcinoma Clonogenic Assay, HT-29. The class given is cell-based. The note with it: HT-29, 2 days with drug, colonies after approximately 2 weeks. The protocol: Human Colon Carcinoma Clonozenic Assay. Human colon carcinoma cells are seeded into 6 well plates in volumes of 3 mL and allowed to incubate overnight (37° C., 5% CO2, 95% air). SW-620 cells are seeded at 7×10^5 per well; HCT-8 cells are seeded at 5×10^5 per well; HT-29 cells are seeded at 4×10^5 cells per well. Serially diluted drugs are prepared at 200 times the final concentration, and 15 μL are added to each of duplicate wells. Cells are incubated with drug for 2 days, rinsed once with 1 mL of trypsin+EDTA, and then trypsinized with the same trypsin solution. After trituration and centrifugation at 750×g for 3 minutes, the cells are suspended in serum-free growth medium and counted using an electronic particle counter. An agarose mixture appropriate for the cloning of each cell line is made using 10% fetal bovine serum in growth medium (SW-620-0.35% agarose, HCT-8 and HT-29-0.4% agarose). […] One; milliliter of each of these cell suspensions is added to duplicate wells of 6 well plates previously prepared with 10% serum/growth medium/1% agarose plugs. The cells in these plates are incubated for approximately 2 weeks in the incubator and stained with 1 mL per well of 1 mg/mL iodonitrotetrazolium violet stain. The visible colonies are counted with an electronic optical colony counter and the clonogenicity of treated cells calculated in comparison to untreated control cells.

Test [3] addresses T2, EGFr (Human EGF receptor tyrosine kinase) (Homo sapiens, UniProt P00533).
T2 construct: Human EGF receptor tyrosine kinase is isolated from A431 human epidermoid carcinoma cells; endogenous in cells; host or cells: A431 human epidermoid carcinoma cells (detergent lysate, Q Sepharose fractions)
Description: EGFr tyrosine kinase assay. It is filed as biochemical. The following applies: 10 μM ATP. Here is the method: Epidermal Growth Factor Receptor (EGFr). Human EGF receptor tyrosine kinase is isolated from A431 human epidermoid carcinoma cells by the following method. Cells were grown in roller bottles in 50% Dulbecco's Modified Eagle medium and 50% HAM F-12 nutrient media (Gibco) containing 10% fetal calf serum. Approximately 10^9 cells are lysed in two volumes of buffer containing 20 mM 2-(4N-[2-[…]]piperazin-1-yl)ethanesulfonic acid (Hepes), pH 7.4, 5 mM ethylene glycol bis(2-aminoethyl ether) N,N,N',N'-tetraacetic acid (EGTA), 1% Triton X-100, 10% glycerol, 0.1 mM sodium orthovanadate, 5 mM sodium fluoride, 4 mM pyrophosphate, 4 mM benzamide, 1 mM dithiothreitol (DTT), 80 μg/mL aprotinin, 40 μg/mL leupeptin, and 1 mM phenylmethylsulfonyl fluoride (PMSF). After centrifugation at 25,000×g for 10 minutes, the supernatant is applied to a fast Q sepharose column (Pharmacia) and eluted with a linear gradient from 0.1 M NaCl to 0.4 M NaCl in 50 mM Hepes, 10% glycerol, pH 7.4. Enzyme active fractions are pooled, divided into aliquots, and stored at -100° C.
as §2

A further test relates to SW-620 cells. Description: Human Colon Carcinoma Growth Delay Assay, SW-620. It is filed as cell-based. The following applies: 72 h, SW-620, 3 days. The protocol:
as §1

The test system of another test is HCT-8 cells. Description: Human Colon Carcinoma Growth Delay Assay, HCT-8. The class given is cell-based. The following applies: 72 h, HCT-8, 3 days. The protocol:
as §1

T1 sequence (P06213 1023-1298 limits assumed, species assumed): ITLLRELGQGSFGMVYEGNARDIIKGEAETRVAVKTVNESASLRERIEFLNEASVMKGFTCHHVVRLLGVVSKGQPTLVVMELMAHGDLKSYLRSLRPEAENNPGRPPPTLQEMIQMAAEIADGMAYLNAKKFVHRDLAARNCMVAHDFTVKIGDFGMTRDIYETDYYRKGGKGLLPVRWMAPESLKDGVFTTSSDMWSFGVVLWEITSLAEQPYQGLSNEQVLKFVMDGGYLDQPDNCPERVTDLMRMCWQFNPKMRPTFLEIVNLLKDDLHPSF
T2 sequence (P00533 25-1210): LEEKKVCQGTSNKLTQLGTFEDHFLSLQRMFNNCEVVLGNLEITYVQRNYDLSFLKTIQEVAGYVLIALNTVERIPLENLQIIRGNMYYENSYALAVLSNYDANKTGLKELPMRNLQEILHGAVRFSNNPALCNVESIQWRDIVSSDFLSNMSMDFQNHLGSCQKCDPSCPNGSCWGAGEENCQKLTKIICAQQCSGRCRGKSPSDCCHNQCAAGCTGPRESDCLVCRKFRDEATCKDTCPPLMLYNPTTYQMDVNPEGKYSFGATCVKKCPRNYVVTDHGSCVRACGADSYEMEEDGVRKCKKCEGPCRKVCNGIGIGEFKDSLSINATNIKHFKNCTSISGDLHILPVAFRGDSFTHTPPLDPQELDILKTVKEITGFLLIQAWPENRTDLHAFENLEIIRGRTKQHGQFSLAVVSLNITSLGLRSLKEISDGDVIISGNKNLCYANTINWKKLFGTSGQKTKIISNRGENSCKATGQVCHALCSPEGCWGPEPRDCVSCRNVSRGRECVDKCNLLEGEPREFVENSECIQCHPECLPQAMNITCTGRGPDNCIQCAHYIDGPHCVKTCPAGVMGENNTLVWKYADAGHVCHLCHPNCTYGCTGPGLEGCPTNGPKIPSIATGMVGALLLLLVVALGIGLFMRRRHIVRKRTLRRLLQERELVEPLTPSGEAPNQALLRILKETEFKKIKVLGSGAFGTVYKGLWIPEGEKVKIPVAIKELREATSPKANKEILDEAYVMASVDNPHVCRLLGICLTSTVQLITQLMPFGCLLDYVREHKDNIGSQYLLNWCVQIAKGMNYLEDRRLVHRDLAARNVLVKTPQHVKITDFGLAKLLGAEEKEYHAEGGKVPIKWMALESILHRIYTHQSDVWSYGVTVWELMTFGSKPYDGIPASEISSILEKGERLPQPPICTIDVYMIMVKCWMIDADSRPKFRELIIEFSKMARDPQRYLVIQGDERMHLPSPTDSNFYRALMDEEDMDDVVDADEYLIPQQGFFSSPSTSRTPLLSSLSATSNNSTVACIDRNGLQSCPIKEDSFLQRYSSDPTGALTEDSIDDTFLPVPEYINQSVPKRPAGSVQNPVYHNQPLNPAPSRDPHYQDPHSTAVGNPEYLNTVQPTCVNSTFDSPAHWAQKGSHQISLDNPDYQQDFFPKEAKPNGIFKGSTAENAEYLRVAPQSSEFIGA

What is called IC50 is the midpoint of a concentration-inhibition curve. A low value points to inhibition by little substance. As for `CCN(CC)CCCCNc1cc2c(cn1)cc(-c1c(Cl)cccc1Cl)c(=O)n2C` [Example F, 3-(2,6-dichlorophenyl)-7-[4-(diethylamino)butylamino]-1-methyl-1H-[1,6]naphthyridin-2-one], the IC50 in the test on HT-29 cells [1] was 1.5 µM; against insulin receptor (INSr), greater than 50 µM; in the test with HT-29 cells [2] it was greater than 5 µM; in test [3] it was 3.8 µM; in the test with SW-620 cells, 7.2 µM; in the test with HCT-8 cells it was 2.3 µM.
Regarding `CN1CCN(CCCNc2cc3c(cn2)cc(-c2c(Cl)cccc2Cl)c(=O)n3C)CC1` [Example H, 3-(2,6-dichlorophenyl)-1-methyl-7-[3-(4-methylpiperazin-1-yl)propylamino]-1H-[1,6]naphthyridin-2-one], the IC50 in the test on HT-29 cells [1] is 2.2 µM; at insulin receptor (INSr), greater than 50 µM; in the test with HT-29 cells [2], greater than 5 µM; in test [3] it was 3.2 µM; in the test on SW-620 cells it was 5.2 µM; in the test on HCT-8 cells, 2.8 µM.
Consider `CCN(CC)CCOc1ccc(Nc2cc3c(cn2)cc(-c2c(Cl)cccc2Cl)c(=O)n3C)cc1` [Example P, 3-(2,6-dichlorophenyl)-7-[(4-(2-(diethylamino)ethoxy)phenyl)amino]-1-methyl-1H-[1,6]naphthyridin-2-one], for which the IC50 is 0.8 µM in the test with HT-29 cells [1]; greater than 50 µM at insulin receptor (INSr); greater than 5 µM in the test with HT-29 cells [2]; 0.59 µM in test [3]; 6.7 µM in the test with SW-620 cells; 2.8 µM in the test with HCT-8 cells.
In the case of `CN1CCN(CCOc2ccc(Nc3cc4c(cn3)cc(-c3c(Cl)cccc3Cl)c(=O)n4C)cc2)CC1` [Example S, 3-(2,6-dichlorophenyl)-1-methyl-7-[(4-(2-(4-methylpiperazin-1-yl)ethoxy)phenyl)amino]-1H-[1,6]naphthyridin-2-one], the IC50 stood at 0.9 µM in the test on HT-29 cells [1], 6.8 µM in the test with SW-620 cells and 5.2 µM in the test on HCT-8 cells.
